We go through 12 molecules from patent publication US20220220128A1, “HETEROCYCLIC COMPOUNDS AS KINASE INHIBITORS, COMPOSITIONS COMPRISING THE HETEROCYCLIC COMPOUND, AND METHODS OF USE THEREOF” (JS Innopharm (Shanghai) Ltd, priority 2019, published 2022).

The target in one assay is T1, human RET kinase (Homo sapiens, UniProt P07949).
T1 construct: purchased Carna 08-159
The assay can be described thus: RET Kinase Assay (LanthaScreen TR-FRET enzymatic assay). The note with it: 7 nM RET, 23 μM ATP. Type of assay: biochemical. The protocol: Compounds were tested in a LanthaScreen™ time-resolved fluorescence energy transfer (TR-FRET) enzymatic assay from Invitrogen. The assay used human RET kinase (Carna 08-159). Test compounds were prepared and diluted in DMSO in 3-fold serial dilutions to 50× of the final testing concentrations. The compounds were then further diluted to 5× by the kinase reaction buffer (50 mM HEPES pH 7.5, 0.0015% Brij-35). The enzymatic reaction for compound testing was performed in a white 384-well polypropylene plate (Corning 3573) with a total reaction volume of 25 μl containing 7 nM RET, 3 μM peptide substrate FAM-P2 (GL Biochem 112394), and 23 μM ATP (Sigma A7699-1G). The assay started with loading RET diluted in kinase reaction buffer to wells, followed by addition of equal volume of 5× compounds for 15-min incubation at the room temperature for pre-treatment. The enzymatic reaction was initiated by addition of mixture of the substrate and ATP prepared in kinase reaction buffer. After incubation at 28° C. for one hour, 25 μl of stopper buffer (a mixture of 100 mM HEPES pH 7.5 buffer, 0.015% Brij-35, 50 mM EDTA and 0.2% of coating reagent 3 (Cliper Lifesciences)) and produce TR-FRET signals. After 30 minutes of incubation at room temperature, the plate was read in a Caliper with the following settings: Excitation 340 nm (30)/Emission1 495 nm (10)/Emission2 520 nm (25). The TR-FRET values were dimensionless numbers that were calculated as the ratio of the acceptor ([…]) signal to the donor (Terbium) signal. Percent of control was calculated as the percentage of compound-treated vs 1% DMSO vehicle-treated. The dose-response curves were generated and the IC50s were calculated by nonlinear sigmoid curve fitting using XLFit.

The target of a further assay is T2, human KDR kinase (Homo sapiens, UniProt P35968).
T2 construct: purchased Carna 08-191
The experiment in a line: KDR Kinase Assay (LanthaScreen TR-FRET enzymatic assay). Format: biochemical. The note with it: 1.2 nM KDR, 92 μM ATP. On the procedure:
Compounds were tested in a LanthaScreen™ time-resolved fluorescence energy transfer (TR-FRET) enzymatic assay from Invitrogen. The assay used human KDR kinase (Carna 08-191). Test compounds were prepared and diluted in DMSO in 3-fold serial dilutions to 50× of the final testing concentrations. The compounds were then further diluted to 5× by the kinase reaction buffer (50 mM HEPES pH 7.5, 0.0015% Brij-35). The enzymatic reaction for compound testing was performed in a white 384-well polypropylene plate (Corning 3573) with a total reaction volume of 25 μl containing 1.2 nM KDR, 3 μM peptide substrate FAM-P22 (GL Biochem 112393), and 92 μM ATP (Sigma A7699-1G). The assay started with loading RET diluted in kinase reaction buffer to wells, followed by addition of equal volume of 5× compounds for 15-min incubation at the room temperature for pre-treatment. The enzymatic reaction was initiated by addition of mixture of the substrate and ATP prepared in kinase reaction buffer. After incubation at 28° C. for one hour, 25 μl of stopper buffer (a mixture of 100 mM HEPES pH 7.5 buffer, 0.015% Brij-35, 50 mM EDTA and 0.2% of coating reagent 3 (Cliper Lifesciences)) and produce TR-FRET signals. After 30 minutes of incubation at room temperature, the plate was read in a Caliper with the following settings: Excitation 340 nm (30)/Emission1 495 nm (10)/Emission2 520 nm (25). The TR-FRET values were dimensionless numbers that were calculated as the ratio of the acceptor ([…]) signal to the donor (Terbium) signal. Percent of control was calculated as the percentage of compound-treated vs 1% DMSO vehicle-treated. The dose-response curves were generated and the IC50s were calculated by nonlinear sigmoid curve fitting using XLFit.

The next assay deals with TT cells. The experiment in a line: TT Cell Proliferation Assay (WST-8, 8 days). Format: cell-based. The following applies: Homo sapiens, 192 h, growth inhibition in TT cells, read-out: TT Cellular Activity. On the procedure: Compounds disclosed herein were tested for the inhibition of RET by a cancer cell proliferation assay commonly known as MTT assay. In this assay, a complete media was prepared by adding 10% fetal bovine serum to RPMI-1640 medium (Life technology). TT cells were added to each of 88 wells of a 96 well plate at a seeding density of 6,000 cells/well/90 μL. The cells were allowed to attach to the plate by incubating at 37° C. for 24 hours. The compound was dissolved in DMSO (SIGMA). A solution of test compound was prepared in complete media by serial dilution to obtain the following concentrations: 50 μM, 15 μM, 5 μM, 1.5 μM, 0.5 μM, 0.15 μM, 0.05 μM, 0.015 μM and 0.005 μM. The test compound solution (10 μL) was added to each of 80 cell-containing wells. The final concentrations of the compound were following: 5 μM, 1.5 μM, 0.5 μM, 0.15 μM, 0.05 μM, 0.015 μM, 0.005 μM, 0.0015 μM and 0.0005 μM. The final concentration of DMSO is 0.5%. To the 8 remaining cell-containing wells, only complete media (containing 0.5% DMSO) was added to form a control group in order to measure maximal proliferation. To the remaining 8 empty wells, complete media was added to for a vehicle control group in order to measure background. The plates were incubated at 37° C. for 8 days. 10 μL WST-8 solution (DOJINDO, Cell Counting KIT-8) was added to each well. The plates were further incubated at 37° C. for 5 hours, and then read for the absorbance using a microplate reader at 450 nm. The IC50 was calculated using GraphPad Prism.

Read-outs that look alike come from different tables or passages of the source.

T2 sequence (P35968 20-1356): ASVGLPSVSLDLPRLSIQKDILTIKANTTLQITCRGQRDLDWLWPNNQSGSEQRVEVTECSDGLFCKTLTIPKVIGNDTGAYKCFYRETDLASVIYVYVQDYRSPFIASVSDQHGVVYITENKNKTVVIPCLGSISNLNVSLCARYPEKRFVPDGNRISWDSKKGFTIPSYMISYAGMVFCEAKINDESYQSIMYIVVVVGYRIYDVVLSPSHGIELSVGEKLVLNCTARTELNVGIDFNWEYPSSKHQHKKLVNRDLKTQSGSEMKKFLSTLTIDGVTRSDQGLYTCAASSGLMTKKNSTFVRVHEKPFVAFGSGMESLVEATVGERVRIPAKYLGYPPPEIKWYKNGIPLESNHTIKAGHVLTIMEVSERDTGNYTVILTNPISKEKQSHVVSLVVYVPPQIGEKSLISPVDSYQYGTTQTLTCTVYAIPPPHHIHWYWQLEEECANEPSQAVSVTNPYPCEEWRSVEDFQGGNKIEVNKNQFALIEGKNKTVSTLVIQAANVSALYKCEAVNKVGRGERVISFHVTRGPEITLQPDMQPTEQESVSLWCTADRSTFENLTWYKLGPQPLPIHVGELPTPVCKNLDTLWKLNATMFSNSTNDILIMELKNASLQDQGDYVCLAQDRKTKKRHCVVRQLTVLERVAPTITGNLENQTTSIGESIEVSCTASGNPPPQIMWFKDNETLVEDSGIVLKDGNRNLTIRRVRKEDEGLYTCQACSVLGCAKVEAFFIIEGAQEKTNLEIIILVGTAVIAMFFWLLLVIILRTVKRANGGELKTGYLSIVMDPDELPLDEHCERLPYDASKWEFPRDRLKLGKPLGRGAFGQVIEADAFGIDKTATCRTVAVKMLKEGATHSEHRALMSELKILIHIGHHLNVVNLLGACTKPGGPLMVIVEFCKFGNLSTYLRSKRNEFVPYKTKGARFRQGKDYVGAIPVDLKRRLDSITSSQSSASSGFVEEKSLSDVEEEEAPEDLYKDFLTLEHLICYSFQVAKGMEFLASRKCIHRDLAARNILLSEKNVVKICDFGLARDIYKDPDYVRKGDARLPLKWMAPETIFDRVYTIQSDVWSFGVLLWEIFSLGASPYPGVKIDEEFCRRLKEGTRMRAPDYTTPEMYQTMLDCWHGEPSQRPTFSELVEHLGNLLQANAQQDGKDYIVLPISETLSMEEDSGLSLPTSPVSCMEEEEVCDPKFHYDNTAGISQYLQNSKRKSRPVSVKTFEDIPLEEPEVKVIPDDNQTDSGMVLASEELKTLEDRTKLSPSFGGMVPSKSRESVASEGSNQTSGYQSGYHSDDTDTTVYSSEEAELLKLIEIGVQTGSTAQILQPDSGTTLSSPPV
T1 sequence (P07949 29-1114): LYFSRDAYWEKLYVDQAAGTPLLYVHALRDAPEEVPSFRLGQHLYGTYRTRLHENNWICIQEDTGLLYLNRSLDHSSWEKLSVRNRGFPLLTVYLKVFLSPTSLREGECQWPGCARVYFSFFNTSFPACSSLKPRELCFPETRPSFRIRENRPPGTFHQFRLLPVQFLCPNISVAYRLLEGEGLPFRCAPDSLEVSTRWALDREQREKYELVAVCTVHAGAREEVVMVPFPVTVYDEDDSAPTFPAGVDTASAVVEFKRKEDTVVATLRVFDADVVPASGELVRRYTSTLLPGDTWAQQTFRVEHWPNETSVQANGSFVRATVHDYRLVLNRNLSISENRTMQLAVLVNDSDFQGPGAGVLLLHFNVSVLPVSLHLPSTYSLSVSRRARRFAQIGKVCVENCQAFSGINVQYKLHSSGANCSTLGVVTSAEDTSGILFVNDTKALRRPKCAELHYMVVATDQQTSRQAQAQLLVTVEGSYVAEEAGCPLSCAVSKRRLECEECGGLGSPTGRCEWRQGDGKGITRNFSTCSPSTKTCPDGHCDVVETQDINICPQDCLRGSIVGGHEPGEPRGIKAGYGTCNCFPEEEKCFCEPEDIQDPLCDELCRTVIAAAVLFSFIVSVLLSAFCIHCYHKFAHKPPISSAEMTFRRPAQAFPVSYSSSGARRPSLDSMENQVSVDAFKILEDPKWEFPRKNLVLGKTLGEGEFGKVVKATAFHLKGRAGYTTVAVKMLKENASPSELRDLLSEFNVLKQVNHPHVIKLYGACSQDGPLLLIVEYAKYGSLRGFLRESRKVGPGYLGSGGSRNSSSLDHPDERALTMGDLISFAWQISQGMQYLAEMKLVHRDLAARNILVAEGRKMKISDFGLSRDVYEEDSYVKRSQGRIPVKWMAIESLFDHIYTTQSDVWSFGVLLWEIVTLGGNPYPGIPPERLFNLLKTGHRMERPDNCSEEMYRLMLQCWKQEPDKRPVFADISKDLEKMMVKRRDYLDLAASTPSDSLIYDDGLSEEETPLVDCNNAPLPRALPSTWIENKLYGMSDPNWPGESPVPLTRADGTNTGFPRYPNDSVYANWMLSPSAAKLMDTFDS

For the molecule `CCOc1cc(-c2ccc(N3C[C@H]4CN(C(=O)c5ncccc5Cl)C[C@H]4C3)nc2)c2c(C#N)cnn2c1` [Example 6, 4-(6-((3aR,6aS)-5-(3-chloropicolinoyl)hexahydropyrrolo[3,4-c]pyrrol-2(1H)-yl)pyridin-3-yl)-6-ethoxypyrazolo[1,5-a]pyridine-3-carbonitrile], the IC50 was at most 10 nM against human RET kinase, over 100 nM against human KDR kinase and 10 to 50 nM in the assay with TT cells (TT).
In the same order, the values of `CC(O)COc1cc(-c2ccc(N3C[C@H]4CN(C(=O)c5ncccc5Cl)C[C@H]4C3)nc2)c2c(C#N)cnn2c1` (stereo partly drawn) [Example 8, 4-(6-((3aR,6aS)-5-(3-chloropicolinoyl)hexahydropyrrolo[3,4-c]pyrrol-2(1H)-yl)pyridin-3-yl)-6-(2-hydroxypropoxy)pyrazolo[1,5-a]pyridine-3-carbonitrile] are at most 10 nM, over 100 nM and 10 to 50 nM.
For `CC(C)C(=O)N1C[C@@H]2CN(c3ccc(-c4cc(-c5cnn(C)c5)cn5ncc(C#N)c45)cn3)C[C@@H]2C1` [Example 10, 4-(6-((3aR,6aS)-5-isobutyrylhexahydropyrrolo[3,4-c]pyrrol-2(1H)-yl)pyridin-3-yl)-6-(1-methyl-1H-pyrazol-4-yl)pyrazolo[1,5-a]pyridine-3-carbonitrile], in that order: at most 10 nM, 10 to 50 nM and 10 to 50 nM.
In the same order, the values of `COc1ccc(CN2C[C@@H]3CN(c4ccc(-c5cc(-c6ccn(C)n6)cn6ncc(C#N)c56)cn4)C[C@@H]3C2)cn1` [Example 13, 4-(6-((3aR,6aS)-5-((6-methoxypyridin-3-yl)methyl)hexahydropyrrolo[3,4-c]pyrrol-2(1H)-yl)pyridin-3-yl)-6-(1-methyl-1H-pyrazol-3-yl)pyrazolo[1,5-a]pyridine-3-carbonitrile] are at most 10 nM, 10 to 50 nM and 10 to 50 nM.
As to `COc1ccc(CN2C[C@@H]3CN(c4ccc(-c5cc(OCC(C)(C)O)cn6ncc(C#N)c56)cn4)C[C@@H]3C2)cn1` [Example 14, 6-(2-hydroxy-2-methylpropoxy)-4-(6-((3aR,6aS)-5-((6-methoxypyridin-3-yl)methyl)hexahydropyrrolo[3,4-c]pyrrol-2(1H)-yl)pyridin-3-yl)pyrazolo[1,5-a]pyridine-3-carbonitrile], the values for the IC50 against human RET kinase, on human KDR kinase and in the assay on TT cells (TT) were at most 10 nM, over 100 nM and 10 to 50 nM, respectively.
For `COc1ccc(C(=O)N[C@H]2[C@@H]3CN(c4ccc(-c5cc(-c6cnn(C)c6)cn6ncc(C#N)c56)cc4)C[C@@H]32)cn1` [Example 15, N-((1R,5S,6s)-3-(4-(3-cyano-6-(1-methyl-1H-pyrazol-4-yl)pyrazolo[1,5-a]pyridin-4-yl)phenyl)-3-azabicyclo[3.1.0]hexan-6-yl)-6-methoxynicotinamide], the IC50 against human RET kinase is 10 to 50 nM; against human KDR kinase, 50 to 100 nM; with TT cells (TT) it was 10 to 50 nM.
Consider `CC(C)C(O)C(=O)N[C@H]1[C@@H]2CN(c3ccc(-c4cc(-c5cnn(C)c5)cn5ncc(C#N)c45)cc3)C[C@@H]21` (stereo partly drawn) [Example 16, N-((1R,5S,6s)-3-(4-(3-cyano-6-(1-methyl-1H-pyrazol-4-yl)pyrazolo[1,5-a]pyridin-4-yl)phenyl)-3-azabicyclo[3.1.0]hexan-6-yl)-2-hydroxy-3-methylbutanamide], for which the IC50 against human RET kinase was at most 10 nM; against human KDR kinase, 10 to 50 nM; in the assay with TT cells (TT) it was 10 to 50 nM.
As for `CC(C)C(O)C(=O)N[C@@H]1[C@@H]2CN(c3ccc(-c4cc(-c5cnn(C)c5)cn5ncc(C#N)c45)cc3)C[C@@H]21` (stereo partly drawn) [Example 17, N-((1R,5S,6r)-3-(4-(3-cyano-6-(1-methyl-1H-pyrazol-4-yl)pyrazolo[1,5-a]pyridin-4-yl)phenyl)-3-azabicyclo[3.1.0]hexan-6-yl)-2-hydroxy-3-methylbutanamide], the IC50 at human RET kinase was at most 10 nM; against human KDR kinase, 10 to 50 nM; with TT cells (TT), 10 to 50 nM.
For `Cn1cc(-c2cc(-c3ccc(N4C[C@@H]5[C@H](C4)[C@H]5NC(=O)[C@H](O)c4ccccc4)nc3)c3c(C#N)cnn3c2)cn1` [Example 18, (R)-N-((1R,5S,6s)-3-(5-(3-cyano-6-(1-methyl-1H-pyrazol-4-yl)pyrazolo[1,5-a]pyridin-4-yl)pyridin-2-yl)-3-azabicyclo[3.1.0]hexan-6-yl)-2-hydroxy-2-phenylacetamide], the IC50 against human RET kinase was at most 10 nM; against human KDR kinase, 10 to 50 nM; with TT cells, 10 to 50 nM.
On to `CC(C)[C@@H](O)C(=O)N[C@H]1[C@@H]2CN(c3ccc(-c4cc(-c5cnn(C)c5)cn5ncc(C#N)c45)cn3)C[C@@H]21` [Example 19, (R)-N-((1R,5S,6s)-3-(5-(3-cyano-6-(1-methyl-1H-pyrazol-4-yl)pyrazolo[1,5-a]pyridin-4-yl)pyridin-2-yl)-3-azabicyclo[3.1.0]hexan-6-yl)-2-hydroxy-3-methylbutanamide], for which the IC50 on human RET kinase is at most 10 nM; against human KDR kinase, 10 to 50 nM; in the assay with TT cells (TT), 10 to 50 nM.
On to `Cn1cc(-c2cc(-c3ccc(N4C[C@@H]5[C@H](C4)[C@H]5NC(=O)c4ncccc4C(F)(F)F)nc3)c3c(C#N)cnn3c2)cn1` [Example 21, N-((1R,5S,6s)-3-(5-(3-cyano-6-(1-methyl-1H-pyrazol-4-yl)pyrazolo[1,5-a]pyridin-4-yl)pyridin-2-yl)-3-azabicyclo[3.1.0]hexan-6-yl)-3-(trifluoromethyl)picolinamide], for which the results for the IC50 against human RET kinase, at human KDR kinase and in the assay with TT cells (TT) were at most 10 nM, at most 10 nM and 10 to 50 nM, respectively.
As to `Cn1cc(-c2cc(-c3ccc(N4C[C@@H]5[C@H](C4)[C@H]5NC(=O)c4ncc(F)cc4Cl)nc3)c3c(C#N)cnn3c2)cn1` [Example 22, 3-chloro-N-((1R,5S,6s)-3-(5-(3-cyano-6-(1-methyl-1H-pyrazol-4-yl)pyrazolo[1,5-a]pyridin-4-yl)pyridin-2-yl)-3-azabicyclo[3.1.0]hexan-6-yl)-5-fluoropicolinamide], the IC50 is at most 10 nM against human RET kinase, 10 to 50 nM against human KDR kinase and 50 to 100 nM in the assay on TT cells (TT).
